Where “and” joins values, the source holds several entries; their conditions need not be identical. Equal entries are not always repeated.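 Compound exposure: 48 hours, 5 concentrations, 96-well plates. The concentration for 50% growth inhibition is given as GI50. At the TGI there is no net growth.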
Columns and labels:
Test in all cases: NCI anticancer screen, dose series, 48 h
IGROV1 ovarian = system: IGROV1 ovarian
RPMI-8226 leukemia = system: RPMI-8226 leukemia
OVCAR-3 ovarian = system: OVCAR-3 ovarian
NCI-H23 lung = system: NCI-H23 lung
MOLT-4 leukemia = system: MOLT-4 leukemia
786-0 renal = system: 786-0 renal
OVCAR-8 ovarian = system: OVCAR-8 ovarian
HCT-116 colon = system: HCT-116 colon
ACHN renal = system: ACHN renal
SF-295 CNS = system: SF-295 CNS
NCI-H522 lung = system: NCI-H522 lung
UACC-257 melanoma = system: UACC-257 melanoma
HOP-62 NSCLC = system: HOP-62 NSCLC
NCI-H226 lung = system: NCI-H226 lung
RXF 393 renal = system: RXF 393 renal
EKVX NSCLC = system: EKVX NSCLC
SK-MEL-28 melanoma = system: SK-MEL-28 melanoma
HT29 colon = system: HT29 colon
M14 melanoma = system: M14 melanoma
A498 renal = system: A498 renal
SK-OV-3 ovarian = system: SK-OV-3 ovarian
UACC-62 melanoma = system: UACC-62 melanoma
MALME-3M melanoma = system: MALME-3M melanoma
OVCAR-5 ovarian = system: OVCAR-5 ovarian
MDA-MB-231 breast = system: MDA-MB-231 breast
LOX IMVI melanoma = system: LOX IMVI melanoma
HL-60(TB) leukemia = system: HL-60(TB) leukemia
HOP-92 NSCLC = system: HOP-92 NSCLC
T-47D breast = system: T-47D breast

CO/N=C/C=C\C(=O)N/C=C/C[C@H]1/C=C/[C@H](O)/C=C\C=C\c2cccc(O)c2C(=O)O1
GI50 (IGROV1 ovarian): < 10 nM and 12.9 nM | TGI (IGROV1 ovarian): > 49 µM and 30.9 µM | GI50 (RPMI-8226 leukemia): 26.5 nM and 30.9 nM | TGI (RPMI-8226 leukemia): 6.8 µM and 2.21 µM | GI50 (OVCAR-3 ovarian): 457 nM and 653 nM | TGI (OVCAR-3 ovarian): 23.8 µM and 27.3 µM | GI50 (NCI-H23 lung): 2650 nM and 463 nM | TGI (NCI-H23 lung): > 100 µM and 36.1 µM | GI50 (MOLT-4 leukemia): 43.9 nM and 79 nM | TGI (MOLT-4 leukemia): 14 µM and 23.5 µM | GI50 (786-0 renal): 54 nM and 125 nM | TGI (786-0 renal): 15.6 µM and 4.03 µM | GI50 (OVCAR-8 ovarian): 19.1 nM and 33 nM | TGI (OVCAR-8 ovarian): > 100 µM | GI50 (HCT-116 colon): < 10 nM and 20.7 nM | TGI (HCT-116 colon): 12.8 µM and 12.9 µM | GI50 (ACHN renal): 39 nM and 54.2 nM | TGI (ACHN renal): 15.7 µM and 15.2 µM | GI50 (SF-295 CNS): 22.9 nM and 19.8 nM | TGI (SF-295 CNS): 117 nM and 84.5 nM | GI50 (NCI-H522 lung): 17.6 nM and 31.1 nM | TGI (NCI-H522 lung): 14.3 µM and 7.12 µM | GI50 (UACC-257 melanoma): 24.8 nM and 49.3 nM | TGI (UACC-257 melanoma): 659 nM and 4170 nM | GI50 (HOP-62 NSCLC): 266 nM and 65.9 nM | GI50 (NCI-H226 lung): 829 nM and 1310 nM | TGI (NCI-H226 lung): 13.3 µM and 25.8 µM | GI50 (RXF 393 renal): 931 nM and 108 nM | TGI (RXF 393 renal): 34.5 µM and 12.9 µM | GI50 (EKVX NSCLC): 189 nM and 467 nM | TGI (EKVX NSCLC): > 100 µM | GI50 (SK-MEL-28 melanoma): 303 nM and 309 nM | TGI (SK-MEL-28 melanoma): 13.4 µM and 8.66 µM | GI50 (HT29 colon): < 10 nM and 39.5 nM | TGI (HT29 colon): 11.2 µM and > 33.7 µM | GI50 (M14 melanoma): < 10 nM and 15.2 nM | TGI (M14 melanoma): 119 nM and 136 nM | GI50 (A498 renal): 722 nM | TGI (A498 renal): 5.42 µM | TGI (SK-OV-3 ovarian): > 100 µM | GI50 (UACC-62 melanoma): < 14.8 nM and 22 nM | TGI (UACC-62 melanoma): 79.5 nM and 60.5 nM | GI50 (MALME-3M melanoma): 114 nM and 89.9 nM | TGI (MALME-3M melanoma): 5.88 µM and 10.6 µM | GI50 (OVCAR-5 ovarian): < 11 nM and 32.6 nM | TGI (OVCAR-5 ovarian): 14.4 µM and > 54.4 µM | GI50 (MDA-MB-231 breast): < 10 nM | TGI (MDA-MB-231 breast): 6.64 µM | GI50 (LOX IMVI melanoma): < 10 nM | TGI (LOX IMVI melanoma): 16 nM | GI50 (HL-60(TB) leukemia): 20.8 nM and 37.3 nM | GI50 (HOP-92 NSCLC): < 10 nM and 19 nM | TGI (HOP-92 NSCLC): 74.5 nM and 492 nM | GI50 (T-47D breast): < 10 nM and 27.3 nM | TGI (T-47D breast): 64.7 µM and > 71.7 µM
